Test systems include NCI-H23 lung; M14 melanoma; MCF7 breast; HCT-116 colon; NCI-H522 lung; SR leukemia; SW-620 colon; LOX IMVI melanoma; SF-295 CNS; UACC-257 melanoma; OVCAR-3 ovarian.
What all share (assay): growth of human tumour cells (NCI), 48 h

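All cell lines were grown in 96-well plates and treated with compound for 48 hours. TGI: total growth inhibition.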

Regarding `[N-]=[N+]=Nc1c([N+](=O)[O-])c(=O)n(-c2ccccc2)c2ccccc12`, the TGI in the assay with NCI-H23 lung is 60.7 µM; in the assay with M14 melanoma, 73.1 µM; in the assay on MCF7 breast it was 67 µM; in the assay with HCT-116 colon, 51.3 µM; in the assay on NCI-H522 lung, over 100 µM; in the assay on SR leukemia, 82.6 µM. Moreover, the TGI was 58.4 µM with SW-620 colon; 43.9 µM in the assay on LOX IMVI melanoma; 95.5 µM with SF-295 CNS; over 100 µM in the assay on UACC-257 melanoma; 22.7 µM in the assay with OVCAR-3 ovarian.
In the case of `Nc1ccc2c(c1)C(=O)N1CCC[C@H]1C(=O)N2`, the TGI in the assay with NCI-H23 lung, in the assay on M14 melanoma, with MCF7 breast, in the assay with HCT-116 colon, in the assay on NCI-H522 lung and with SR leukemia was over 100 µM throughout. The TGI in the assay on SW-620 colon, in the assay on LOX IMVI melanoma, in the assay on SF-295 CNS, in the assay on UACC-257 melanoma and with OVCAR-3 ovarian was over 100 µM each time.
In the case of `BrC1=C(Br)C2(SCCS2)[C@H]2C[C@@H]1c1ccccc12`, the TGI is over 100 µM in the assay with NCI-H23 lung; over 100 µM with M14 melanoma; over 100 µM in the assay with MCF7 breast; over 100 µM in the assay with HCT-116 colon; over 100 µM with NCI-H522 lung; 75 µM with SR leukemia. Besides, the TGI in the assay on SW-620 colon, in the assay on LOX IMVI melanoma, with SF-295 CNS, in the assay on UACC-257 melanoma and in the assay with OVCAR-3 ovarian was over 100 µM each time.
Consider `CC(C)(C)OC(=O)NC1CCCCC1NC(=O)C(=O)NC1CCCCC1NC(=O)OC(C)(C)C` (stereo not drawn), for which the TGI with NCI-H23 lung, with M14 melanoma, in the assay with MCF7 breast, in the assay with HCT-116 colon, with NCI-H522 lung and with SR leukemia was over 100 µM in each case. The TGI in the assay with SW-620 colon, in the assay on LOX IMVI melanoma, in the assay on SF-295 CNS, in the assay with UACC-257 melanoma and with OVCAR-3 ovarian was over 100 µM each time.
As to `O=S(=O)(O)CCCc1cccc2ccccc12`, the TGI in the assay on NCI-H23 lung, in the assay with M14 melanoma, in the assay with MCF7 breast, in the assay on HCT-116 colon, in the assay with NCI-H522 lung and in the assay with SR leukemia was over 100 µM in each case. In addition, the TGI with SW-620 colon, in the assay on LOX IMVI melanoma, in the assay with SF-295 CNS, in the assay on UACC-257 melanoma and in the assay on OVCAR-3 ovarian was over 100 µM throughout.
In the case of `COc1cc(OC)cc(Oc2nc3ccccc3nc2C(F)(F)F)c1`, the TGI with NCI-H23 lung, in the assay on M14 melanoma, with MCF7 breast, in the assay on HCT-116 colon, in the assay with NCI-H522 lung and in the assay on SR leukemia was over 100 µM throughout. In addition, the TGI with SW-620 colon, with LOX IMVI melanoma, in the assay on SF-295 CNS, in the assay with UACC-257 melanoma and in the assay on OVCAR-3 ovarian was over 100 µM each time.
Take `CC1=C(C)CC2C(=O)N(c3cc(C(C)(C)C)ccc3C(C)(C)C)C(=O)C2C1` (stereo not drawn): the TGI in the assay with NCI-H23 lung is over 100 µM; with M14 melanoma, over 100 µM; in the assay with MCF7 breast it was 17.2 µM; with HCT-116 colon, over 100 µM; with NCI-H522 lung, 23.9 µM; in the assay on SR leukemia it was over 100 µM. The TGI in the assay on SW-620 colon, in the assay with LOX IMVI melanoma, with SF-295 CNS, in the assay on UACC-257 melanoma and in the assay with OVCAR-3 ovarian was over 100 µM each time.
In the case of `O=C(/C=C/c1ccccc1)Oc1cccc(O)c1`, the TGI in the assay on NCI-H23 lung is over 100 µM; with M14 melanoma it was over 100 µM; in the assay with MCF7 breast, over 100 µM; in the assay with HCT-116 colon, 31.8 µM; with NCI-H522 lung, 29.5 µM; with SR leukemia, 48.6 µM. Further, the TGI in the assay with SW-620 colon is 37.9 µM; in the assay on LOX IMVI melanoma, over 100 µM; with SF-295 CNS it was 34.3 µM; in the assay on UACC-257 melanoma it was over 100 µM; in the assay on OVCAR-3 ovarian it was over 100 µM.
With `C[n+]1c2ccc(Cl)cc2nc2cc(-c3ccccc3)ccc21`, the TGI with NCI-H23 lung is 23.2 µM; in the assay on M14 melanoma it was 27.7 µM; in the assay with MCF7 breast it was 4.52 µM; in the assay on HCT-116 colon it was over 100 µM; in the assay on NCI-H522 lung, 37.9 µM; with SR leukemia it was 9.14 µM. The TGI with SW-620 colon was over 100 µM; in the assay with LOX IMVI melanoma, over 100 µM; in the assay on SF-295 CNS, 11.5 µM; in the assay on UACC-257 melanoma it was 32.9 µM; in the assay on OVCAR-3 ovarian, 6.44 µM.
With `C=CCc1cccc2cc(C(=O)NCc3ccccc3)c(=N)oc12`, the TGI in the assay with NCI-H23 lung is over 100 µM; in the assay with M14 melanoma it was over 100 µM; in the assay with MCF7 breast, over 100 µM; in the assay on HCT-116 colon, 70.7 µM; with NCI-H522 lung it was 44.2 µM; in the assay on SR leukemia, over 100 µM. For the same molecule, the TGI in the assay on SW-620 colon is over 100 µM; in the assay on LOX IMVI melanoma, over 100 µM; with UACC-257 melanoma, over 100 µM; in the assay with OVCAR-3 ovarian, 58.6 µM.
For `O=C1c2ccccc2C(=O)c2c(NCC(O)CO)ccc(NCC(O)CO)c21` (stereo not drawn), the TGI in the assay on NCI-H23 lung, with MCF7 breast, with HCT-116 colon, in the assay with NCI-H522 lung, with SR leukemia and in the assay with SW-620 colon was over 100 µM throughout. Also, the TGI with LOX IMVI melanoma, in the assay with UACC-257 melanoma and in the assay with OVCAR-3 ovarian was over 100 µM each time.
On to `CN=C(n1ccnc1)n1ccnc1`, for which the TGI in the assay on NCI-H23 lung, in the assay on M14 melanoma, with MCF7 breast, in the assay on HCT-116 colon, with NCI-H522 lung and in the assay on SR leukemia was over 100 µM throughout. For the same molecule, the TGI with SW-620 colon, with LOX IMVI melanoma, with UACC-257 melanoma and in the assay with OVCAR-3 ovarian was over 100 µM in each case.
On to `O=C1/C(=C/c2ccc(Br)s2)NC(=S)N1c1ccccc1`, for which the TGI in the assay with NCI-H23 lung, in the assay with MCF7 breast, with HCT-116 colon, in the assay with NCI-H522 lung, in the assay on SR leukemia and in the assay with SW-620 colon was over 100 µM throughout. The TGI in the assay with LOX IMVI melanoma, with SF-295 CNS, in the assay with UACC-257 melanoma and in the assay on OVCAR-3 ovarian was over 100 µM each time.

The record behind these values is PubChem BioAssay (NCI).
